According to a melting point compilation (Tetko et al.; mined from patent text by program, amines drawn as free bases though some values may be those of a salt):

First: O=S(=O)(c1ccccc1)n1cc(I)c2c(OCc3ccccc3)ccnc21
Second: O=C(NCCCl)Nc1ccc(CCCc2ccccc2OCc2ccccc2)cc1
The melting point of the first is higher: 177 to 179 °C for the first, 120 to 121 °C for the second.

First: CCOc1cccc(-c2ccnc(Nc3cccc(OC(F)(F)C(F)F)c3)n2)c1
Second: O=C(Nc1ccccn1)c1cnc2c(C(F)(F)F)cccc2c1O
The melting point of the first is lower: 88 to 96 °C for the first, 335 to 336 °C for the second.

First: COC(=O)c1ccoc1-c1cccc([N+](=O)[O-])c1
Second: Cc1ccnc2c(Oc3ccc([N+](=O)[O-])cc3)cccc12
The melting point of the first is lower: 93 to 94 °C for the first, 148 to 149 °C for the second.

First: C[C@@H]1[C@H](O[Si](C)(C)C(C)(C)C)[C@@H](C)C(S(=O)(=O)c2ccccc2)=C[C@H]1O
Second: CC(C)(C)OC(=O)c1nc(-c2ccccc2)[nH]c1-c1cccnc1
The melting point of the first is lower: 107 to 108 °C for the first, 196 to 197 °C for the second.

First: Brc1ccc(N2CCN(c3ccncc3)CC2)nc1
Second: CCCc1nc(N)nc(N)c1N1CCN(c2ccc(C(=O)OCC)cc2)CC1
The melting point of the first is lower: 176 to 180 °C for the first, 215 to 216 °C for the second.

Going from `CC(C)NC1=NS(=O)(=O)c2ccc(S(C)(=O)=O)cc2N1` to `CC(C)NC1=NS(=O)(=O)c2sc(Br)cc2N1`, the melting point falls from > 300 °C to 279 °C.

Compared with `CC(CCc1cccc(Cl)c1)NC(=O)n1nc(N(C)C)n(N)c1=O` (stereo not given), `COC(=O)C(C)c1ccc2nc3ccc(Cl)cn3c(=O)c2c1` (stereo not given) is higher in melting point: 74 °C for the first, 173 °C for the second.

First: CCCCCC(C)(O)C=CC1CCC(=O)C1CCCCCCC(=O)O (stereo not given)
Second: CCCCCCCCCCCCCCC(=O)Nc1ccn(C2OC(CO)C(O)C2O)c(=O)n1 (stereo not given)
The melting point of the first is lower: 61 to 62 °C for the first, 142 to 145 °C for the second.

First: C#CCN(C(=O)CN)C(=O)OC
Second: CC(C)(C)OC(=O)N[C@@H]1CCCC[C@H]1OCC(=O)O (relative stereo)
The melting point of the first is lower: 77 to 80 °C for the first, 205 to 207 °C for the second.

First: CC(C)OC(=O)N[C@H]1CC[C@H](CCN2CCN(c3cccc(Cl)c3Cl)CC2)CC1
Second: CC1CCCN1CCCN1CCN(CCN2CCCC2)C1=C(C#N)C#N (stereo not given)
The melting point of the first is higher: 128 to 131 °C for the first, 95 to 96 °C for the second.

First: CC(C)(C)NC(=O)C(=O)C(C)(C)C
Second: CCOC(=O)Cc1c(C(=O)OCC)[nH]c2ccccc12
The melting point of the first is lower: 65 °C for the first, 75 to 78 °C for the second.

First: CCCCCC(=O)Nc1nc2cc(Cl)ccc2nc1NC(=O)CC
Second: CCCc1nc2c(N)nc3cc(OCCCNC(=O)C(C)C)ccc3c2n1CC(C)C
The melting point of the first is lower: 158 to 160 °C for the first, 179 to 181 °C for the second.

First: O=C1c2ccccc2C2(Cc3ccccc3)NCCN12 (stereo not given)
Second: O=CCN1C(=O)c2ccccc2C1=O
The melting point of the first is higher: 115 to 117 °C for the first, 114 °C for the second.

First: NC(=O)C1(c2c(F)cccc2F)CC1
Second: NC(=S)c1cccc2nnsc12
The melting point of the first is higher: 137 to 138 °C for the first, 129 to 131 °C for the second.

First: CC(O)c1ccccc1N (stereo not given)
Second: CC(O)=C(C#N)C(=O)Nc1ccccc1
The melting point of the first is lower: 50 to 52 °C for the first, 134 to 135 °C for the second.

Compared with `Fc1ccc2c(C3CCN(CC4=Cc5cc6c(cc54)OCO6)CC3)noc2c1`, `CN1CCOc2cc3c(cc21)OCC31C(=O)N(CC2CCCO2)c2ccccc21` (stereo not given) is higher in melting point: 125 to 126 °C for the first, 138 to 140 °C for the second.

First: Oc1cc2[nH]c3c(O)c(O)cc(Br)c3c2cc1O
Second: COc1ccc(C(=O)C=Cc2cc(O)c(O)c([N+](=O)[O-])c2)cc1OC
The melting point of the first is higher: > 260 °C for the first, 206 to 208 °C for the second.

First: CNC(=O)C(=O)CCCCCON=Cc1ccc(-c2ccccc2)cc1
Second: O=C(O)Cc1ccc(C(=O)c2ccccc2)s1
The melting point of the first is lower: 86 to 87 °C for the first, 144 °C for the second.

First: C=CCOc1ccc2c(C)c(F)c(=O)oc2c1C
Second: Cc1oc(-c2ccco2)nc1COc1ccc(CO)cc1Cl
The melting point of the first is lower: 117 °C for the first, 143 to 144 °C for the second.

Compared with `O=C(Nc1cc(F)cc(F)c1)Oc1ccccc1`, `O=Cc1c2ccccc2c(SCCO)c2ccccc12` is lower in melting point: 123 to 125 °C for the first, 103 to 104 °C for the second.

First: COc1cc(C=CC(=O)OC2CC3CC(OC(=O)Cc4cccc(O)c4)CC2N3C)cc(OC)c1OC (stereo not given)
Second: CCOC(=O)CCC(=O)c1c(COC(C)=O)c(COC(C)=O)cc2cc(OC)c(OC)cc12
The melting point of the first is lower: 53 to 57 °C for the first, 85 to 87 °C for the second.

Compared with `CC1(C)c2cc(OS(C)(=O)=O)ccc2OC1Cl` (stereo not given), `COc1ccc(Br)cc1S(=O)(=O)NCCCl` is higher in melting point: 59 to 61 °C for the first, 150 °C for the second.

First: Cc1cc(C)nc(-n2ccnc2SCc2ccccc2NC=O)c1
Second: Cc1nc2c(O)c(C(=O)[C@H](O)[C@@H](O)c3ccccc3)ccc2n1C1CC1
The melting point of the first is higher: 124 to 126 °C for the first, 120 °C for the second.

First: Cc1cn(CCCCc2ccccc2)c2ccc(C(=O)Nc3cccc4c(=O)cc(-c5nnn[nH]5)oc34)cc12
Second: CC1=NN(c2cccc(S(N)(=O)=O)c2)C(=O)C1=c1[nH]c(=c2[nH]c(=C3C(=O)N(c4cccc(S(N)(=O)=O)c4)N=C3C)c3ccccc23)c2ccccc12
The melting point of the first is lower: 186 to 187 °C for the first, > 300 °C for the second.

Compared with `Cc1cc2n(C)c(=O)c3cnccc3n2n1`, `Cc1cc2ncccn2n1` is lower in melting point: > 300 °C for the first, 54 to 57 °C for the second.

Compared with `CNC(=S)NCc1nc(C(C)C)c(Sc2cc(Cl)cc(Cl)c2)n1C`, `CCNc1ccc2nnc(-c3ncc([N+](=O)[O-])n3C)n2n1` is higher in melting point: 188 to 190 °C for the first, 258 to 263 °C for the second.

First: CC1(C)Cc2ccc(C(F)(F)F)c(C#N)c2O1
Second: CC1(C)Cc2cccc(OCC3CO3)c2O1 (stereo not given)
The melting point of the first is higher: 79 to 83 °C for the first, 51 to 52 °C for the second.

First: Cc1ccc(S(=O)(=O)C2(CC#Cc3ccc(Cl)cc3)SC(=O)N(C(c3ccccc3)(c3ccccc3)c3ccccc3)C2=O)cc1 (stereo not given)
Second: O=C(O)CC1=CCCCC1n1nc(-c2c(-c3ccccc3)nn3ccccc23)ccc1=O (stereo not given)
The melting point of the first is higher: 221 to 223 °C for the first, 164 to 166 °C for the second.

First: O=C1CSCc2cc(Br)ccc21
Second: O=C1C(=O)c2ccccc2C2=C1SCC1(CCN(C3CCCCC3)CC1)O2
The melting point of the first is lower: 81 °C for the first, 195 to 196 °C for the second.

First: c1cn(CCCc2ccc(OCc3coc(C4CCCCC4)n3)cc2)cn1
Second: Nc1ccc(CCC(=O)N2CCCCC2)cc1[N+](=O)[O-]
The melting point of the first is lower: 46 to 47 °C for the first, 140 to 141 °C for the second.

First: COC(=O)c1ccc(C#Cc2ccc(OCC(O)CO)c(C34CC5CC(CC(C5)C3)C4)c2)cc1 (stereo not given)
Second: CCOC(=O)c1sc2ccc(O)c(C=Nc3ccc(OC)cc3)c2c1Cl
The melting point of the first is higher: 202 to 203 °C for the first, 162 to 163 °C for the second.

First: CCNC(=O)C(=O)[C@H](Cc1ccccc1)NC(=O)[C@H](CC(C)C)NC(=O)OC1CCOCC1
Second: O=C(Nc1ncnc2c1c(Cl)cn2C1CC(O)C(CO)O1)c1ccccc1 (stereo not given)
The melting point of the first is lower: 140 to 142 °C for the first, 190 °C for the second.

First: COCc1ncnc(O)c1OC
Second: CC(C)Cn1cc2c(O)nc(O)nc2n1
The melting point of the first is lower: 141 to 143 °C for the first, 328 to 330 °C for the second.

Compared with `CC(C(=O)O)c1cccc(C(=O)c2cc3sccc3s2)c1` (stereo not given), `O=C(NC(=O)c1c(Cl)cccc1Cl)Nc1ccc(F)c(C(F)(F)F)c1Cl` is higher in melting point: 133 °C for the first, 227 to 230 °C for the second.

First: CCCCOC(=O)N(C)S(=O)(=O)c1cc([N+](=O)[O-])c(N(CCC)CCC)c([N+](=O)[O-])c1
Second: CC(C)c1cc(C(C)C)c(C(F)C(=O)c2ccc(C(C)C)c(OS(N)(=O)=O)c2C(C)C)c(C(C)C)c1 (stereo not given)
The melting point of the first is lower: 99 to 101 °C for the first, 130 to 132 °C for the second.

First: CCOC(=O)c1nc2c(=O)[nH]c3cc(C(F)(F)F)ccc3n2c1Cn1cnc(Cl)c1Cl
Second: O=C(CC(=O)C(F)(F)F)Nc1cc(-c2ccsc2)n[nH]1
The melting point of the first is lower: 240 °C for the first, 251 to 253 °C for the second.

First: O=C1C2C3CCC(C3)C2C(=O)C1[N+](=O)[O-] (stereo not given)
Second: O=C(c1ccc(O)cc1)N1CC=CCC1
The melting point of the first is lower: 167 °C for the first, 202 to 206 °C for the second.

Molecule `CS(=O)(=O)c1nnc(-c2ccco2)s1` has a melting point of 120 °C.
